# Article PMC5483439, “The Effect of Pungent and Tingling Compounds from Piper nigrum L. on Background K^+ Currents” (Frontiers in Pharmacology, 2017)
# Tested on: background current of mouse trigeminal neurons
# Experiment: Whole-cell patch clamp on cultured mouse trigeminal neurons
# Format: cell-based
# Details: 100 μM
# Protocol: Trigeminal ganglia neurons were isolated from Swiss CD-1 mice (Charles River Laboratories, Sulzfeld, Germany). All experiments involving animals were carried out in accordance with the European Union Community Council’s guidelines and approved by the competent state office of the Federal Land of Northrhine Westphalia (file number 87-51.04.2010.A180). At postnatal day 2–5, the mice were sacrificed by decapitation. The brain was removed, and both trigeminal ganglia were excised. The ganglia were washed in PBS+/+ (Invitrogen, Karlsruhe, Germany) and collected in Leibovitz Medium (L15, Invitrogen) on ice. The ganglia were transferred to Dulbecco’s modified essential medium (DMEM) containing 0.025% collagenase (type IA, Sigma–Aldrich). The minced ganglia were incubated for 45 min in a humidified atmosphere (37°C, 95% humidity, 6% CO2) before trituration. The cell suspension was centrifuged at 1000 rpm for 4 min at room temperature and the pellet was resuspended in F-12 medium (Invitrogen; 31331-D-MEM/F-12, GlutaMax^TM) supplemented with 10% fetal bovine serum (FBS^TM; Invitrogen), 200 U/mL penicillin and 200 U/mL streptomycin. The cell suspension (50 μL) was then plated on poly L-lysine (0.01%) coated glass coverslips (30 mm, Sarstedt, Nümbrecht, Germany), placed in cell culture dishes (35 mm) and kept in a humidified atmosphere (37°C, 95% humidity, 6% CO2) for 1 h. Subsequently, F-12 medium (2 mL) supplemented with FBS (10%), 200 U/mL penicillin and 200 U/mL streptomycin was added to each dish. The cells were kept in an incubator (37°C, 95% humidity, 6% CO2) until use.
# The recordings were performed using the whole-cell configuration of the patch-clamp technique. The cells were maintained in an extracellular recording solution containing 140 mM NaCl, 5 mM KCl, 2 mM MgCl2, 2 mM CaCl2, 10 mM HEPES and 10 mM glucose, pH 7.4. The Ca^2+ and Na^+- free extracellular solution contained: 140 mM NMDG-Cl, 5 mM KCl, 2 mM MgCl2, 5 mM EGTA, 10 mM HEPES, pH 7.4. The patch electrodes were pulled from borosilicate glass (1.2 mm OD × 1.17 mm ID; Harvard apparatus, Edenbridge, Kent, United Kingdom) and fire polished to 2.5–4 MΩ tip resistance using a horizontal pipette puller (Zeitz Instruments, Munich, Germany) to obtain a patch of approximately 1–2 μm diameter. The pipette solution contained 140 mM KCl, 1 mM MgCl2, and 10 mM HEPES, pH 7.4. All recordings were performed at room temperature with an EPC7 amplifier (List-Medical Electronic, Darmstadt, Germany). The capacity and serial resistance were adjusted manually. The substances were applied via a custom-made manifold superfusion device. […] The data were acquired using Pulse software (HEKA, Lambrecht, Germany) and analyzed with PulseFit (HEKA, Lambrecht, Germany). Unless otherwise stated, the data are expressed as the mean ± SEM. […]
smiles,measurement,setting,value
"O=C(/C=C/C=C/c1ccc2c(c1)OCO2)N1CCCCC1 [1a, piperine]",membrane potential change in current clamp,Na+/Ca2+-free conditions,mild depolarization
same,current inhibition when applied under acidic pH,"Na+/Ca2+-free solution, with XE-991, acidic pH, p = 0,00012",significantly decreased
same,decrease in the background current,"physiological extracellular solution, 13 of 38 neurons, <30 μm diameter",19.5 ± 1.8%
